Patent US20180086810A1, “T CELL RECEPTOR FUSIONS AND CONJUGATES AND METHODS OF USE THEREOF” (ALTOR BIOSCIENCE CORPORATION, priority 2000, published 2018)

How the values were obtained:
HLA-A2 = biological target: T1, HLA-A2 (Homo sapiens, UniProt P04439, D140Y/D185E/D98H/E176V/E277Q/G131W/G231S/I119V/I121R/I166T/I218V/L300P/L318F/N151K/N90K/P208A/P217A/Q86G/Q94H/R138H/R169H/T345S); assay: HLA-A2 loading of peptide on T2 cells, staining with HLA-A2 specific mAb BB7.2; format: cell-based; settings: T2 cells pulsed with 50 μg peptide overnight; BB7.2 staining
T1 construct: HLA-A2 surface expression on T2 cells; endogenous in cells; host or cells: T2 cells
Protocol: (§1) Flow cytometry and immunofluoresence staining were used to show direct binding of the fusion protein via its TCR to peptide/HLA-A2 complexes on the surface of the human B lymphoid cell line T2 (FIG. 4) • A) Staining of 149 or 264 peptide pulsed T2 cells with 0.5 μg (10 μg/ml) of 264 scTCR-IL-2 fusion protein. […] To evaluate A2 loading of each peptide, the cells were stained with the HLA-A2 specific mAb BB7.2 […] after overnight incubation of the cells with peptide.

[1] = tested on: CTLL-2 cells and 264 peptide-loaded T2 cells; assay: Cell-cell conjugation assay, CTLL-2 cells with 264 peptide-loaded T2 cells, flow cytometer; format: cell-based, murine CTLL-2, human T2
Protocol: (§2) In this experiment, T2 cells pulsed with either the 149 or 264 peptide. CTLL-2 cells were hydrodiethidium (HE) labeled and incubated for 20 minutes at RT with an equal number of calcein-AM labeled T2 cells pulsed with either 50 μg of 149 or 264 peptide. […] In contrast, conjugate formation was not observed with the mixture that included the 149 peptide pulsed T2 cells (B; 0.88%). Cell samples were washed one time before analysis on the flow cytometer.

[2] = biological target: T2, 149 peptide/HLA-A2 complexes on the surface of the human B lymphoid cell line T2 (Homo sapiens, UniProt P04439+P04637, D140Y/D185E/D98H/E176V/E277Q/G131W/G231S/I119V/I121R/I166T/I218V/L300P/L318F/N151K/N90K/P208A/P217A/Q86G/Q94H/R138H/R169H/T345S); assay: Flow cytometry / immunofluorescence staining of peptide-pulsed T2 cells with fusion protein (149 peptide); format: binding; settings: 0.5 μg (10 μg/ml) fusion protein; T2 cells pulsed with 149 peptide
T2 construct: on the surface of the human B lymphoid cell line T2; endogenous in cells; host or cells: T2 cells pulsed with 149 peptide
Protocol: as §1

[3] = tested on: CTLL-2 cells and 149 peptide pulsed T2 cells; assay: Cell-cell conjugation assay, CTLL-2 cells with 149 peptide pulsed T2 cells, flow cytometer; format: cell-based, murine CTLL-2, human T2; settings: fusion protein; HE-labeled CTLL-2 and calcein-AM labeled T2 pulsed with 50 μg 149 peptide; 20 minutes at RT
Protocol: as §2

[4] = biological target: 264 peptide/HLA-A2 complexes on the surface of the human B lymphoid cell line T2 (Homo sapiens, UniProt P04439+P04637, D140Y/D185E/D98H/E176V/E277Q/G131W/G231S/I119V/I121R/I166T/I218V/L300P/L318F/N151K/N90K/P208A/P217A/Q86G/Q94H/R138H/R169H/T345S); assay: Flow cytometry / immunofluorescence staining of peptide-pulsed T2 cells with fusion protein (264 peptide); format: binding; settings: 0.5 μg (10 μg/ml) fusion protein; T2 cells pulsed with 264 peptide
Protocol: as §1

## LLGRNSFEV [264 peptide]
HLA-A2
  HLA-A2 binding of peptide (HLA-A2 surface expression on pulsed T2 cells): efficient HLA-A2 binding

## 264 scTCR-IL-2 fusion protein: soluble 264 single-chain TCR covalently linked to human IL-2 with EE peptide tag
[1]; 1 Ag of fusion protein, HE-labeled CTLL-2 and calcein-AM labeled T2 pulsed with 50 μg 264 peptide, 20 minutes at RT
  conjugation between cells (conjugate formation): 3.25%
[1]; restatement of example 11
  conjugation between a T cell and an antigen presenting cell pulsed with the correct peptide: able to mediate conjugation
[2]
  binding of fusion protein to T2 cells displaying the 149 peptide: not
[3]
  conjugation between cells (conjugate formation): 0.88%
[4]
  binding of fusion protein to T2 cells displaying the 264 peptide: binds specifically
